The results in this text go back to ChEMBL document CHEMBL1201862, “PubChem BioAssay data set” (2004).

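The compound was tested at five concentrations on cells cultured in 96-well plates, with a 48-hour exposure period. Abbreviation: GI50, concentration required for 50% inhibition of growth.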 Activity calls are given as the source filed them. Cut-off read from the data, not from the text of the source: active = GI50 up to about 1.1 µM and inactive = higher. Where a SMILES comes first, the peptide text is derived from it. The star is where a group is joined. Fmoc = O=C(OCC1c2ccccc2-c2ccccc21)*; OBn = c1ccc(CO*)cc1; tBu = CC(C)(C)* A value given as a limit tells only on which side of the number the result lay.

Among the test systems are MDA-MB-435; KM12; EKVX; SF-268; OVCAR-8; CAKI-1; LOX IMVI; SF-295; CCRF-CEM; UACC-257; HCT-15; NCI-H226; UACC-62; K562; SN12C; OVCAR-5; HOP-62; HT-29; MCF7; RXF 393.
Holding throughout (assay): inhibition of tumour cell growth, NCI panel, 48 h

In the case of `O=C1N/C(=N/N=C/c2c[nH]c3ccccc23)N/C1=C\c1c[nH]c2ccccc12`, the GI50 is 24.5 µM (inactive) in the assay with MDA-MB-435; 21 µM (inactive) with KM12; 25.6 µM (inactive) in the assay with EKVX; 20.4 µM (inactive) in the assay with SF-268; 15.8 µM (inactive) in the assay with OVCAR-8; 31 µM (inactive) in the assay with CAKI-1. In addition, the GI50 in the assay on LOX IMVI is 17.4 µM (inactive); with SF-295, 21.4 µM (inactive); in the assay with CCRF-CEM, 7.74 µM (inactive); with UACC-257, 28.5 µM (inactive); with HCT-15, 23 µM; in the assay on NCI-H226, 17 µM (inactive). Moreover, the GI50 in the assay with UACC-62 was 19.7 µM (inactive); in the assay on K562, 14.7 µM (inactive); in the assay on SN12C, 34.9 µM (inactive); with OVCAR-5, 39.4 µM (inactive); with HOP-62 it was 27 µM (inactive); with HT-29, 23.1 µM (inactive). For the same compound, the GI50 in the assay with MCF7 was 16 µM (inactive); in the assay with RXF 393, 28.6 µM (inactive).
Consider `c1ccc(SCCc2ccncc2)cc1`, for which the GI50 in the assay with MDA-MB-435 is > 100 µM (inactive); with KM12 it was 78.7 µM (inactive); in the assay on EKVX, 46 µM (inactive); in the assay with SF-268, > 100 µM (inactive); in the assay with OVCAR-8, > 100 µM (inactive); in the assay on CAKI-1, 53 µM (inactive). In addition, the GI50 with LOX IMVI was > 100 µM (inactive); in the assay with SF-295, 39.5 µM (inactive); in the assay on CCRF-CEM, 31.3 µM (inactive); with UACC-257, > 100 µM (inactive); in the assay with HCT-15, more than 100 µM; in the assay on NCI-H226, 77.1 µM (inactive). Besides, the GI50 is > 100 µM (inactive) in the assay on UACC-62; 49.5 µM (inactive) with K562; > 100 µM (inactive) with SN12C; > 100 µM (inactive) in the assay with OVCAR-5; > 100 µM (inactive) in the assay on HOP-62; > 100 µM (inactive) in the assay on HT-29. Further, the GI50 in the assay with MCF7 is 91.4 µM (inactive); in the assay with RXF 393 it was > 100 µM (inactive).
For `COc1cc(-c2[o+]c3cc(O)cc(OC4OC(CO)C(O)C(O)C4O)c3cc2OC2OC(CO)C(O)C(O)C2O)cc(OC)c1O` (stereo not given), the GI50 in the assay on MDA-MB-435, with KM12, in the assay on EKVX, with SF-268, with OVCAR-8 and with CAKI-1 was > 100 µM (inactive) throughout. Besides, the GI50 with LOX IMVI is > 100 µM (inactive); in the assay with SF-295, > 100 µM (inactive); in the assay on CCRF-CEM, 70.1 µM (inactive); in the assay with UACC-257 it was > 100 µM (inactive); with HCT-15 it was more than 100 µM; with NCI-H226, > 100 µM (inactive). The GI50 in the assay with UACC-62, with K562, in the assay on SN12C, with OVCAR-5, in the assay with HOP-62 and in the assay with HT-29 was > 100 µM (inactive) in each case. Also, the GI50 in the assay with MCF7 and in the assay on RXF 393 was > 100 µM (inactive) each time.
On to `Cc1occc1C(=S)Nc1ccc(Cl)c(/C=N/OC(C)C)c1`, for which the GI50 in the assay with MDA-MB-435 was 16.4 µM (inactive); in the assay on KM12, 20 µM (inactive); in the assay on EKVX it was 23 µM (inactive); in the assay with SF-268 it was 28.1 µM (inactive); in the assay with OVCAR-8, 22.8 µM (inactive); in the assay on CAKI-1 it was 17.3 µM (inactive). For the same compound, the GI50 is 16 µM (inactive) in the assay with LOX IMVI; 18.3 µM (inactive) in the assay with SF-295; 18.1 µM (inactive) with CCRF-CEM; 22 µM (inactive) in the assay on UACC-257; 17.4 µM with HCT-15; 18.2 µM (inactive) in the assay with NCI-H226. The GI50 with UACC-62 was 14.5 µM (inactive); in the assay with K562, 29.7 µM (inactive); in the assay on SN12C it was 16.8 µM (inactive); in the assay on OVCAR-5 it was 21 µM (inactive); with HOP-62 it was 25.2 µM (inactive); in the assay with HT-29, 19.3 µM (inactive). In addition, the GI50 in the assay with MCF7 was 19.1 µM (inactive); in the assay on RXF 393 it was 21.3 µM (inactive).
For the compound `CCc1nc2cc(/N=N/c3c(O)ccc4ccccc34)ccc2[nH]1`, the GI50 in the assay with MDA-MB-435 was 19.7 µM (inactive); with KM12 it was 11.2 µM (inactive); in the assay on EKVX, 19.1 µM (inactive); in the assay with SF-268, 22.2 µM (inactive); in the assay with OVCAR-8, 14.5 µM (inactive); in the assay with CAKI-1, 22.4 µM (inactive). Besides, the GI50 is 10.1 µM (inactive) in the assay on LOX IMVI; 20.8 µM (inactive) in the assay with SF-295; 3.47 µM (inactive) in the assay with CCRF-CEM; 14.5 µM (inactive) with UACC-257; 12.6 µM in the assay on HCT-15; 22.3 µM (inactive) in the assay with NCI-H226. The GI50 in the assay on UACC-62 is 18.2 µM (inactive); in the assay with K562, 8.59 µM (inactive); in the assay with SN12C, 20.5 µM (inactive); in the assay on OVCAR-5, 17.5 µM (inactive); in the assay on HOP-62, 21.1 µM (inactive); in the assay on HT-29, 19.4 µM (inactive). Besides, the GI50 in the assay on MCF7 is 18.4 µM (inactive); with RXF 393 it was 12.6 µM (inactive).
Consider `COc1cc(C2c3cc4c(cc3OC(NNS(=O)(=O)c3ccc(C)cc3)C2C)OCO4)cc(OC)c1O` (stereo not given), for which the GI50 in the assay with MDA-MB-435 was 3.21 µM (inactive); in the assay on KM12, 8.81 µM (inactive); in the assay on EKVX, 11.7 µM (inactive); with SF-268, 14.8 µM (inactive); in the assay on OVCAR-8, 6.82 µM (inactive); in the assay with CAKI-1, 12.8 µM (inactive). The GI50 is 12 µM (inactive) with LOX IMVI; 3.52 µM (inactive) with SF-295; 7.94 µM (inactive) with CCRF-CEM; 5.06 µM (inactive) in the assay on UACC-257; 8.32 µM in the assay on HCT-15; 9.16 µM (inactive) with NCI-H226. The GI50 in the assay on UACC-62 was 15.2 µM (inactive); in the assay on K562, 4.61 µM (inactive); in the assay with SN12C, 19 µM (inactive); in the assay on OVCAR-5 it was 33.9 µM (inactive); in the assay on HOP-62, 10.4 µM (inactive); in the assay on HT-29, 23.4 µM (inactive). Moreover, the GI50 is 6.24 µM (inactive) in the assay on MCF7 and 10.5 µM (inactive) in the assay on RXF 393.
As to `CC(OC(C)(C)C)C(NC(=O)OCC1c2ccccc2-c2ccccc21)C(=O)NC(Cc1ccccc1)C(=O)OCc1ccccc1` (stereo not given) (Fmoc-Thr(tBu)-Phe-OBn; configuration not given here), the GI50 with MDA-MB-435, in the assay on KM12, in the assay on EKVX, in the assay on SF-268, in the assay with OVCAR-8 and with CAKI-1 was > 100 µM (inactive) each time. Besides, the GI50 is > 100 µM (inactive) in the assay on LOX IMVI; > 100 µM (inactive) in the assay with SF-295; > 100 µM (inactive) in the assay on CCRF-CEM; > 100 µM (inactive) in the assay with UACC-257; more than 100 µM in the assay with HCT-15; > 100 µM (inactive) in the assay with NCI-H226. Besides, the GI50 with UACC-62 was > 100 µM (inactive); in the assay on K562, > 100 µM (inactive); in the assay on SN12C, > 100 µM (inactive); in the assay with OVCAR-5, > 100 µM (inactive); in the assay on HOP-62, > 93.8 µM (inactive); with HT-29, > 100 µM (inactive). Moreover, the GI50 in the assay on MCF7 and in the assay on RXF 393 was > 100 µM (inactive) each time.
